# From patent US8883963B2 (Cadila Healthcare Limited, priority 2007, dated 2014)
# How the values were obtained:
# [1] = test system: RIN5F (Rat Insulinoma) cells; assay: In vitro glucose-dependent insulin secretion (RIN5F cell assay screening protocol); type: cell-based; conditions: 16.7 mM glucose load
# Human GLP-1 receptor = molecular target: T1, Human GLP-1 receptor (Homo sapiens, UniProt P43220); assay: In vitro Human GLP-1 R agonist activity (cyclic AMP determination) in CHO/human GLP1R cells; type: cell-based
# T1 construct: The full-length cDNA was cloned in pcDNA3.1(+); expressed in transfected cells
# T1 sequence (P43220 24-463): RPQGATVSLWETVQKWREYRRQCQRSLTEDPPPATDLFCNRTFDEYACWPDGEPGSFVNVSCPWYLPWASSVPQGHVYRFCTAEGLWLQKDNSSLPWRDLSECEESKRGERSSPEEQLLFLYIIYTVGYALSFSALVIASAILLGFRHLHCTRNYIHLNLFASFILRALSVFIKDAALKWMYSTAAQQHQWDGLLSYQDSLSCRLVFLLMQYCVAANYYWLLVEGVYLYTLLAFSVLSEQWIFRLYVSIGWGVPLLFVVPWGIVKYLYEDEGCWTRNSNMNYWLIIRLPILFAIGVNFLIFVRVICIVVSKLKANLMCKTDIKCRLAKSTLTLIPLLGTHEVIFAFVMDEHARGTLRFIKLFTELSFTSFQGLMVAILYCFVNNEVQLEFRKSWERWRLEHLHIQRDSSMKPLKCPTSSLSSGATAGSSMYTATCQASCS
# human glucagon receptor = molecular target: T2, human glucagon receptor (Homo sapiens, UniProt P47871); assay: In vitro human glucagon antagonist activity (inhibition of cAMP production) in CHO/human glucagon R cells; type: cell-based; conditions: with saturated concentration of glucagon peptide
# T2 construct: The full-length cDNA was cloned in pcDNA3.1 (Invitrogen); expressed in transfected cells
# T2 sequence (P47871 26-477): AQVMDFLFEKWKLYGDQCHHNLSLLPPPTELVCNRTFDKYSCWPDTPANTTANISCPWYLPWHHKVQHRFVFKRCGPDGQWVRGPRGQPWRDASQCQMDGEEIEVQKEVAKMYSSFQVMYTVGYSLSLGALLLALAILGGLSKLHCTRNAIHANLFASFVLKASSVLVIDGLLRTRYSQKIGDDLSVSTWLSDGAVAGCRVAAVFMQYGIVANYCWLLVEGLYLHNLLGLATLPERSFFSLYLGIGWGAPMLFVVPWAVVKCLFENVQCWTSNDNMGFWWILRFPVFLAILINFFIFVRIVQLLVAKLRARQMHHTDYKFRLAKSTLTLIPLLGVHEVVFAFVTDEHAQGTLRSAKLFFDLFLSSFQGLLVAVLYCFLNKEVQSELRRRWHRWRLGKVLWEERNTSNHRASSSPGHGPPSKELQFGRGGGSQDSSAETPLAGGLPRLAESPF
# DPP IV = DPP IV (Homo sapiens, UniProt P27487); assay: Stability against DPP IV enzyme; type: in vitro ADME; conditions: 37° C.; for % degradation of peptidomimetics in 24 h when incubated with DPP-IV enzyme: 2 μM peptidomimetic; for half-life at 2 μM: DPP IV enzyme, pH 7.8, 2 μM peptidomimetic, read-out: half-life (t1/2) when incubated with DPP-IV enzyme
# Chain of DPP IV (P27487 whole entry, species assumed): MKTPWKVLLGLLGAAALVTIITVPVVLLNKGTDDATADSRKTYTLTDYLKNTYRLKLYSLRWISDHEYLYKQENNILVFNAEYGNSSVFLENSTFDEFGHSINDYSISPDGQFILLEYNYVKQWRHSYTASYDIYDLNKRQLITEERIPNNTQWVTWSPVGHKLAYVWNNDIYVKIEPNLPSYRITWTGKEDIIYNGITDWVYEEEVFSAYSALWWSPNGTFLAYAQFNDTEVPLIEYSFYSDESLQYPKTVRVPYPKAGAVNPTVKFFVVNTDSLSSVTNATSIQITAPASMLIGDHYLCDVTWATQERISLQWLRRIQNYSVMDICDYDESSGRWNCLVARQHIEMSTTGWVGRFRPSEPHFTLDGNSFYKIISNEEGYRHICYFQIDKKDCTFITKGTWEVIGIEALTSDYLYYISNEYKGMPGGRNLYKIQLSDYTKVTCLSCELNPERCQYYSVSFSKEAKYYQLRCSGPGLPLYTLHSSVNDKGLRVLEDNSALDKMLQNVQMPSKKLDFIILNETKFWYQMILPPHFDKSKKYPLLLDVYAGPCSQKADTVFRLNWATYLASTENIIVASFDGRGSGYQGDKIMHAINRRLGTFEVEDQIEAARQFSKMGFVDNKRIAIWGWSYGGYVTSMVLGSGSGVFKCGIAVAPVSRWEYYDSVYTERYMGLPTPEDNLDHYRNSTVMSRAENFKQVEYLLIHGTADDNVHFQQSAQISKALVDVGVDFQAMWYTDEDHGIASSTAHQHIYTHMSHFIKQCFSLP
# Description: (§1) Reactions were terminated by the addition of TFA/H2O (15 mL, 10% (v/v)). […] The column was equilibrated with TFA/H20, at a flow rate of 1 mL/min.
# [2] = Stability in human plasma; type: in vitro ADME; conditions: 2 μM peptidomimetic, pooled human plasma, 37° C.; for half-life at 2 μM: pH 7.8, read-out: half-life (t1/2) when incubated with human plasma
# Description: as §1
# [3] = Stability in simulated gastric fluid; type: in vitro ADME; conditions: 2 μM peptidomimetic, simulated gastric fluid pH 1.5, 37° C.; for half-life at 2 μM: read-out: half-life (t1/2) when incubated with simulated gastric fluid
# Description: as §1
# [4] = Stability in simulated intestinal fluid; type: in vitro ADME; conditions: 2 μM peptidomimetic, simulated intestinal fluid pH 7.5, 37° C.; for half-life at 2 μM: read-out: half-life (t1/2) when incubated with simulated intestinal fluid
# Description: as §1
# [5] = Stability in liver microsomes; type: in vitro ADME; conditions: 2 μM peptidomimetic, human liver microsomes, 37° C.; for half-life at 2 μM: pH 7.8, read-out: half-life (t1/2) when incubated with liver microsomes
# Description: as §1
SMILES,Insulin secretion ([1]; 0.1 nM test compd.) [pg/µg/h],Insulin secretion ([1]; 1 nM test compd.) [pg/µg/h],Insulin secretion ([1]; 10 nM test compd.) [pg/µg/h],"Human GLP-1 R activity (cAMP release), % activity with respect to control (Human GLP-1 receptor; 1 nM test compound) [%]","Human GLP-1 R activity (cAMP release), % activity with respect to control (Human GLP-1 receptor; 10 nM test compound) [%]","Human GLP-1 R activity (cAMP release), % activity with respect to control (Human GLP-1 receptor; 100 nM test compound) [%]","Human GLP-1 R activity (cAMP release), % activity with respect to control (Human GLP-1 receptor; 1 μM test compound) [%]","Human GLP-1 R activity (cAMP release), % activity with respect to control (Human GLP-1 receptor; 10 μM test compound) [%]",Human Glucagon receptor antagonistic activity shown as inhibition of cAMP production of Glucagon peptide (human glucagon receptor; 1 nM test compound) [pmol/ml/μg prt],Human Glucagon receptor antagonistic activity shown as inhibition of cAMP production of Glucagon peptide (human glucagon receptor; 10 nM test compound) [pmol/ml/μg prt],Human Glucagon receptor antagonistic activity shown as inhibition of cAMP production of Glucagon peptide (human glucagon receptor; 100 nM test compound) [pmol/ml/μg prt],Human Glucagon receptor antagonistic activity shown as inhibition of cAMP production of Glucagon peptide (human glucagon receptor; 1 μM test compound) [pmol/ml/μg prt],Human Glucagon receptor antagonistic activity shown as inhibition of cAMP production of Glucagon peptide (human glucagon receptor; 10 μM test compound) [pmol/ml/μg prt],% degradation of peptidomimetics in 24 h when incubated with DPP-IV enzyme (DPP IV) [%],% degradation of peptidomimetics in 24 h when incubated with human plasma [2] [%],% degradation of peptidomimetics in 24 h when incubated with simulated gastric fluid [3] [%],half-life at 2 μM [3] [h],% degradation of peptidomimetics in 24 h when incubated with simulated intestinal fluid [4] [%],half-life at 2 μM [4] [h],% degradation of peptidomimetics in 24 h when incubated with liver microsomes [5] [%],further results
"CCc1cc(OC)ccc1-c1ccc(CC(NC(=O)[C@H](CC(=O)O)NC(=O)[C@H](CO)NC(=O)[C@@H](NC(=O)[C@H](Cc2ccccc2)NC(=O)[C@@H](NC(=O)CNC(=O)C(CCC#N)NC(=O)C(C)(C)NC(=O)[C@@H](N)Cc2c[nH]cn2)[C@@H](C)O)[C@@H](C)O)C(=O)NC(CCCc2ccccc2C(F)(F)F)C(N)=O)cc1 (single isomer, unassigned) [compound 79]",16.5 ± 0.12,22.7 ± 0.17,36.5 ± 0.05,62 ± 0.11,94 ± 0.09,99 ± 0.06,99 ± 0.14,99 ± 0.19,6 ± 0.02,5 ± 0.03,2 ± 0.61,0,0,86,70,100,0.5,100,0.5,100,half-life (t1/2) when incubated with human plasma [2]: (9) h; half-life at 2 μM [5]: 0.5 h
"CCc1cc(OC)ccc1-c1ccc(CC(CNC(CCCc2ccccc2F)C(N)=O)NC[C@H](CC(=O)O)NC(=O)[C@H](CO)NC(=O)[C@@H](NC(=O)C(C)(Cc2ccccc2F)NC(=O)[C@@H](NC(=O)CNC(=O)[C@H](CCC(N)=O)NC(=O)C(C)(C)NC(=O)[C@H](Cc2c[nH]cn2)NC(=O)OC)[C@H](C)O)[C@H](C)O)cc1 (single isomer, unassigned) [compound 200]",16.5 ± 0.12,22.7 ± 0.17,36.5 ± 0.05,55 ± 0.16,88 ± 0.13,92 ± 0.11,99 ± 0.07,99 ± 0.09,10 ± 0.16,8 ± 0.12,6 ± 0.14,4 ± 0.15,1 ± 0.12,00,00,52,4,00,> 24,81,half-life at 2 μM (DPP IV): > 24 h; half-life at 2 μM [2]: > 24 h; half-life at 2 μM [5]: 2 h
"CCc1cc(OC)ccc1-c1ccc(CC(NC(=O)[C@H](CC(=O)O)NC(=O)[C@H](CO)NC(=O)[C@@H](NC(=O)[C@H](Cc2ccccc2)NC(=O)[C@@H](NC(=O)CNC(=O)C(CCC#N)NC(=O)C(C)(C)NC(=O)[C@@H](N)Cc2c[nH]cn2)[C@@H](C)O)[C@@H](C)O)C(=O)NC(CCCc2cc(C)cc(C)c2)C(N)=O)cc1 (single isomer, unassigned) [compound 30]",17.1 ± 0.11,23.1 ± 0.16,37.0 ± 0.29,38 ± 0.12,78 ± 0.15,86 ± 0.18,95 ± 0.03,98 ± 0.09,22 ± 0.03,21 ± 0.05,20 ± 0.07,18 ± 0.04,18 ± 0.03,00,00,00,> 24,00,> 24,33,half-life at 2 μM (DPP IV): > 24 h; half-life at 2 μM [2]: > 24 h; half-life (t1/2) when incubated with liver microsomes [5]: (5) h
"CCc1cc(OC)ccc1-c1ccc(CC(NC(=O)[C@H](CC(=O)O)NC(=O)[C@H](CO)NC(=O)[C@@H](NC(=O)C(C)(Cc2ccccc2F)NC(=O)[C@@H](NC(=O)CNC(=O)C(CCC#N)NC(=O)C(C)(C)NC(=O)[C@@H](N)Cc2c[nH]cn2)[C@H](C)O)[C@H](C)O)C(=S)NC(CCCc2ccccc2)C(N)=O)cc1 (single isomer, unassigned) [compound 166]",15.4 ± 0.14,21.2 ± 0.18,35.6 ± 0.17,96 ± 0.02,99 ± 0.46,99 ± 0.41,99 ± 0.66,99 ± 0.03,19 ± 0.03,17 ± 0.08,15 ± 0.01,14 ± 0.02,12 ± 0.11,86,70,15,,41,,77,half-life at 2 μM (DPP IV): 9 h; half-life at 2 μM [2]: 8 h; half-life (t1/2) when incubated with simulated gastric fluid [3]: (8) h; half-life (t1/2) when incubated with simulated intestinal fluid [4]: (6) h; half-life at 2 μM [5]: 1 h
